Reference: patent publication US20220298213A1, “IN VIVO ENGINEERED CEREBLON PROTEIN” (Vividion Therapeutics, Inc., priority 2018, published 2022)
Like-named read-outs stand apart in the source and are kept apart here.

Tests used:
Protein-B = experiment: Cysteine probe labeling after IMiD pretreatment, PBMC lysates (Table 4); format: binding
Protein-C = experiment: as above; format: binding
Protein-A = details: PBMC lysates
CRBN-287 = CRBN-287 (Homo sapiens, UniProt Q96SW2); experiment: Cysteine probe labeling after IMiD pretreatment, PBMC lysates (Table 4); format: binding; design: endogenous in cells; host or cells: PBMC lysates; details: read-out: inhibition of cysteine probe labeling, CRBN-287
CRBN-318 = CRBN-318 (Homo sapiens, UniProt Q96SW2); experiment: as above; format: binding; design: endogenous in cells; host or cells: PBMC lysates; details: read-out: inhibition of cysteine probe labeling, CRBN-318
Chain of CRBN-318 (Q96SW2 whole entry): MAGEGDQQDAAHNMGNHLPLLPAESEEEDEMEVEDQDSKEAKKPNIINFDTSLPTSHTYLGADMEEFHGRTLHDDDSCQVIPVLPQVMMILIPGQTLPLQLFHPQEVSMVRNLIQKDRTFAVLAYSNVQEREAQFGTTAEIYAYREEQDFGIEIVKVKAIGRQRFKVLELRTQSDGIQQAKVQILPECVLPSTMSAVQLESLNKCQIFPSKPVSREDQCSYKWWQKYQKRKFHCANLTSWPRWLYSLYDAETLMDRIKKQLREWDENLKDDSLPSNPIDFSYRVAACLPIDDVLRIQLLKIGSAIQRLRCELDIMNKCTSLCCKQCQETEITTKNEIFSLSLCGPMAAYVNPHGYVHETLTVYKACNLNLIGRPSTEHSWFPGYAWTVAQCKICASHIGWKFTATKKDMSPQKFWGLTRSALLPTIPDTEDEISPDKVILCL

Chain of CRBN-287 (Q96SW2 whole entry): as above

O=C1CCC(N2Cc3c(OCc4ccc(CN5CCOCC5)cc4)cccc3C2=O)C(=O)N1 (stereo not drawn) [CC-220]
inhibition of cysteine probe labeling, Protein-B (Protein-B; 2 μM): 23
inhibition of cysteine probe labeling, Protein-B (Protein-B; 20 μM): 11
inhibition of cysteine probe labeling, Protein-B (Protein-B; 50 μM): 17
inhibition of cysteine probe labeling, Protein-C (Protein-C; 2 μM): 0
inhibition of cysteine probe labeling, Protein-C (Protein-C; 20 μM): 2
inhibition of cysteine probe labeling, Protein-C (Protein-C; 50 μM): 0
inhibition of cysteine probe labeling, Protein-A (Protein-A; 2 μM): 16
inhibition of cysteine probe labeling, Protein-A (Protein-A; 20 μM): 19
inhibition of cysteine probe labeling, Protein-A (Protein-A; 50 μM): 13
inhibition at 2 µM (CRBN-287): 75%
inhibition at 20 µM (CRBN-287): 77%
inhibition at 50 µM (CRBN-287): 81%
inhibition at 2 µM (CRBN-318): 70%
inhibition at 20 µM (CRBN-318): 70%
inhibition at 50 µM (CRBN-318): 72%

Nc1cccc2c1C(=O)N(C1CCC(=O)NC1=O)C2=O (stereo not drawn) [Pomalidomide]
inhibition of cysteine probe labeling, Protein-B (Protein-B; 20 μM): 0
inhibition of cysteine probe labeling, Protein-B (Protein-B; 100 μM): 14
inhibition of cysteine probe labeling, Protein-B (Protein-B; 500 μM): 0
inhibition of cysteine probe labeling, Protein-C (Protein-C; 20 μM): 10
inhibition of cysteine probe labeling, Protein-C (Protein-C; 100 μM): 1
inhibition of cysteine probe labeling, Protein-C (Protein-C; 500 μM): 10
inhibition of cysteine probe labeling, Protein-A (Protein-A; 20 μM): 8
inhibition of cysteine probe labeling, Protein-A (Protein-A; 100 μM): 10
inhibition of cysteine probe labeling, Protein-A (Protein-A; 500 μM): 13
inhibition at 100 µM (CRBN-287): 70%
inhibition at 500 µM (CRBN-287): 75%
inhibition at 20 µM (CRBN-318): 59%
